Source: US20140287024A1, “NANOPARTICLE-BASED DELIVERY SYSTEM WITH OXIDIZED PHOSPHOLIPIDS AS TARGETING LIGANDS FOR THE PREVENTION, DIAGNOSIS AND TREATMENT OF ATHEROSCLEROSIS” (priority 2013, published 2014)

Key:
macrophage CD36 = macrophage CD36 (Homo sapiens, UniProt P16671); details: cited from earlier work
[1] = in vitro; cited from earlier work
MCF7 breast cancer cells = assay: Antiproliferative and proapoptotic effects in MCF7 cells; assay type: cell-based, human; details: at 10 μM or lower
Excerpt: The chemopreventive actions exerted by green tea are thought to be due to its major polyphenol, (−)-epigallocatechin-3-gallate (EGCG). However, the low level of stability and bioavailability in the body makes administering EGCG at chemopreventive doses unrealistic. EGCG encapsulated chitosan-coated nanoliposomes (CSLIPO-EGCG) were synthesized, and their antiproliferative and proapoptotic effects in MCF7 breast cancer cells were observed.

[2] = Stability of EGCG in cell culture medium RPMI1640 at 37° C.; assay type: physicochemical; details: after 1 h incubation
Description: To determine the stability in different temperatures, NLCE, CSNLCE and native EGCG containing 100 μM of EGCG were dissolved in 1×PBS solution (pH 7.4) and incubated at 4° C., 22° C. and 37° C. for 14 d, 19 h and 3 h, respectively. To simulate the cell growth, stability was evaluated in the cell culture medium RPMI1640 at 37° C. with or without cells, and with or without superoxide dismutases (SOD, 5 U/ml).

[3] = test system: THP-1 derived macrophages; assay: EGCG content in THP-1 derived macrophages; assay type: cell-based, human; details: 100 μM
Description: Human monocytic THP-1 cell line was purchased from the American Type Tissue Culture Collection (ATCC, Rockville, Md.) and grew in a complete medium according to ATCC instructions. The complete medium consisted of RPMI medium supplemented with 10% fetal bovine serum and 0.05 mM of 2-mercaptoethanol. The cells were incubated in a 5% CO2 atmosphere at 37° C. THP-1 cells were differentiated into macrophages by incubating them with the complete medium containing 50 ng/ml PMA for 72 h.
Macrophages derived from THP-1 cells were treated with 100 μM of NLCE, CSNLCE and native EGCG in the complete medium with or without SOD (5 U/ml). After 2 or 4 h incubation at 4° C. or 37° C., cells were washed three times with ice-cold 1×PBS. The attached cells were scraped by 200 μl of 2% ascorbic acid (pH 3) and each well was washed with 200 μl of methanol, which was then combined with 2% ascorbic acid as a mixture. The volume of mixture was measured and internal standard epicatechin was added into the mixture. After one cycle of freezing and thawing, mixtures were sonicated for 2 min in an ice-cold bath using a sonicator (Branson, Inc.). The mixture was centrifuged at 10,000×g for 20 min at 4° C. The clear supernatant solution was collected and injected into the HPLC system. Precipitates were washed with 0.5 ml of deionized water to get rid of acid and dried in the chemical hood overnight. The dried cells were digested by 0.5 N NaOH. Total cellular protein levels were determined by using a bicinchoninic acid (BCA) kit (Pierce, Cramlington). Total cellular uptake was expressed as μg of EGCG per mg of protein.

[4] = test system: macrophages and macrophage-derived foam cells; details: in vitro; cited from earlier work
[5] = test system: cuff-induced evolving atherosclerotic lesion; details: apolipoprotein E null mice, daily intraperitoneal 10 mg/kg body weight, after 21 days treatment; cited from earlier work
[6] = cited from earlier work
[7] = Stability of NLCE, CSNLCE and native EGCG in PBS at different pH and temperatures (HPLC); assay type: physicochemical
Description: EGCG was detected using a high-performance liquid chromatography (HPLC) system (Waters Corporation, Milford, Mass.) with a UV detector and a ZORBAX SB-C18.5 μm, 150*4.6 mm (Agilent,). The mobile phase was composed of 86% water, 12% acetonitrile, 2% ethyl acetate and 0.043% sulfuric acid, and the flow rate was 1 ml/minute. EGCG was detected at 254 nm.
To determine the stability of NLCE, CSNLCE and native EGCG in a pH range 1-7.4, Hydrochloric acid was added into 200 mM phosphate buffered saline to obtain four different pH solutions (pH=1, 3, 5, 7.4). All samples were then dissolved in these solutions to obtain a final EGCG concentration of 100 μM. The solutions were stored in tightly closed vials and incubated in a 37° C. water bath. EGCG concentrations were measured at 0 h, 0.5 h, 1 h, 1.5 h, 2 h, 2.5 hand 3 h.
[…] To simulate the cell growth, stability was evaluated in the cell culture medium RPMI1640 at 37° C. with or without cells, and with or without superoxide dismutases (SOD, 5 U/ml).

Chain of macrophage CD36 (P16671 whole entry): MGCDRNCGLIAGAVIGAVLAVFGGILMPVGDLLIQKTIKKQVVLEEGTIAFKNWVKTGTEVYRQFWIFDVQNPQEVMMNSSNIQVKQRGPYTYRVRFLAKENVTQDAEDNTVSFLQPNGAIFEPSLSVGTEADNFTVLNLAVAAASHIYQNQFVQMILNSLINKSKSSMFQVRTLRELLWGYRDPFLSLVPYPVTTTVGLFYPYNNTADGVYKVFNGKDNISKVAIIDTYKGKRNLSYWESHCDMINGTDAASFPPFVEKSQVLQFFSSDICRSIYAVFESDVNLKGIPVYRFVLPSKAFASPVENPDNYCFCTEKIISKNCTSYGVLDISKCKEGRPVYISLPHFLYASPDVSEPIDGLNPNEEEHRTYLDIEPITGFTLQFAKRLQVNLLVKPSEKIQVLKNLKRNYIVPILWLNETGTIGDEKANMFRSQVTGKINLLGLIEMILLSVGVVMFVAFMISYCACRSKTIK

Row | Compound | CD36 binding affinity conferred, relative potency (macrophage CD36) | binding affinity to macrophage CD36 (macrophage CD36) | stability in water and physiological fluid [1] | antiproliferative and proapoptotic effectiveness (MCF7 breast cancer cells) | EGCG left [2] | EGCG content in macrophages ([3]; complete medium containing 5 U/ml of SOD, 2 h incubation at 37° C.) | EGCG content in THP-1 derived macrophages ([3]; complete medium without SOD, 2 h incubation at 37° C.) | EGCG content in macrophages ([3]; in the presence of SOD, after 4 h) | apoptosis of macrophages and macrophage-derived foam cells [4] | expression and production of inflammatory factors [4] | reduction of atherosclerotic lesion size [5] | peak plasma EGCG concentration ([6]; after drinking 2 cups of green tea) | absolute oral bioavailability ([6]; after drinking tea containing catechins at 10 mg/kg body weight, humans and research animals) | EGCG left ([7]; 100 μM, 1×PBS pH 7.4, 37° C., after 3 h) | stability in acidic pH ([7]; 100 μM, pH 1.0 to 5.0, 37° C., 3 h) | stability in neutral pH ([7]; 100 μM, pH 7.4, 37° C., after 3 h) | EGCG degraded ([7]; 4° C., after 19 hours, same initial concentration) | EGCG left ([7]; after incubating for 8 h at 23° C.) | order of stability of EGCG at the same pH ([7]; in all conditions)
1 | 1-Palmitoyl-2-(11-carboxy-9-oxoundec-10-enoyl)-sn-glycero-3-phosphatidylcholine [KDdiA-PC] | more potently than any hydroperoxy phospholipid species | high binding affinity | – | – | – | – | – | – | – | – | – | – | – | – | – | – | – | – | –
2 | 5-keto-6-octendioic acid esters of 2-lyso-PC [KOdiA-PC] | – | high binding affinity | – | – | – | – | – | – | – | – | – | – | – | – | – | – | – | – | –
3 | O=C(O[C@@H]1Cc2c(O)cc(O)cc2O[C@@H]1c1cc(O)c(O)c(O)c1)c1cc(O)c(O)c(O)c1 [EGCG, (−)-epigallocatechin-3-gallate] | – | – | unstable | doesn't have any beneficial effects | 3.7% | 0.098 μg/mg protein | 0.031 μg/mg protein | 0.109 μg/mg protein | induce apoptosis | inhibit | 55% | 0.15 µM | about 0.1% | completely degraded | stable | not stable and could not be detected | 91% | 1.52% | CSNLCE>NLCE>native EGCG
